Laboratory results published in ChEMBL document CHEMBL5465560, “Selectivity Literature for EUbOPEN Chemogenomic Library” (2024).

Assays:
[1] = molecular target: Serine/threonine-protein kinase Nek6 (Homo sapiens) (UniProt Q9HC98); test: Selectivity interaction (Kinase panel (Z-LYTE Assay)) EUB0001632a NEK6; details: at 10 µM
[2] = molecular target: T1, Ephrin type-A receptor 1 (Homo sapiens) (UniProt P21709); test: Selectivity interaction (Kinase panel (Invitrogen)) EUB0000639a EPHA1; details: at 200 nM
T1 sequence (whole entry): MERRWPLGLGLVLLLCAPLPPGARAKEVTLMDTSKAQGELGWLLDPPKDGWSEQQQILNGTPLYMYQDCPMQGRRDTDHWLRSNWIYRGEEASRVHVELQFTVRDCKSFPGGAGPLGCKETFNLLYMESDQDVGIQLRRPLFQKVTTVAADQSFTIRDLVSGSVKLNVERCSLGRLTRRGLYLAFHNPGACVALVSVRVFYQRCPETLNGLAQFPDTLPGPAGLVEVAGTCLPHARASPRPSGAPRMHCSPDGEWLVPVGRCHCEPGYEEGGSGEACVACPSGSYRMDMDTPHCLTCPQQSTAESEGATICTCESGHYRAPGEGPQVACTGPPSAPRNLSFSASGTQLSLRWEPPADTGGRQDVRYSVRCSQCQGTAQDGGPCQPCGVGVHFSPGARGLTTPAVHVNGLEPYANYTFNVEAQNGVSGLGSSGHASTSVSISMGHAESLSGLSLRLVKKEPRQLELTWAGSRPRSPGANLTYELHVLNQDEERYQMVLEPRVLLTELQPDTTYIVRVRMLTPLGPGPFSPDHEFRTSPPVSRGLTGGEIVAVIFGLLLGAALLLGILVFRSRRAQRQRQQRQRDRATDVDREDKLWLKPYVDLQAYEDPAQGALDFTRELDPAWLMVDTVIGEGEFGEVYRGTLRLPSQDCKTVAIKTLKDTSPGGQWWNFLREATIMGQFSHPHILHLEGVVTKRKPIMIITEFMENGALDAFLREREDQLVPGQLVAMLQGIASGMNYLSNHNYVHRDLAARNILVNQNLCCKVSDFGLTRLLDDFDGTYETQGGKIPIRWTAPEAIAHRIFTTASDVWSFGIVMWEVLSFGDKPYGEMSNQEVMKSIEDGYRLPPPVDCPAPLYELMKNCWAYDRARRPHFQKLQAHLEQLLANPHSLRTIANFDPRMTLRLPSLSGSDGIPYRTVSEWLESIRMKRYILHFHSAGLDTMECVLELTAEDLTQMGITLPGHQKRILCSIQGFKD

[3] = molecular target: T2, Serine/threonine-protein kinase D1 (Homo sapiens) (UniProt Q15139); test: Selectivity interaction (KinomeScan (DiscoverX)) EUB0000695a PRKD1; details: at 100 nM
T2 sequence (whole entry): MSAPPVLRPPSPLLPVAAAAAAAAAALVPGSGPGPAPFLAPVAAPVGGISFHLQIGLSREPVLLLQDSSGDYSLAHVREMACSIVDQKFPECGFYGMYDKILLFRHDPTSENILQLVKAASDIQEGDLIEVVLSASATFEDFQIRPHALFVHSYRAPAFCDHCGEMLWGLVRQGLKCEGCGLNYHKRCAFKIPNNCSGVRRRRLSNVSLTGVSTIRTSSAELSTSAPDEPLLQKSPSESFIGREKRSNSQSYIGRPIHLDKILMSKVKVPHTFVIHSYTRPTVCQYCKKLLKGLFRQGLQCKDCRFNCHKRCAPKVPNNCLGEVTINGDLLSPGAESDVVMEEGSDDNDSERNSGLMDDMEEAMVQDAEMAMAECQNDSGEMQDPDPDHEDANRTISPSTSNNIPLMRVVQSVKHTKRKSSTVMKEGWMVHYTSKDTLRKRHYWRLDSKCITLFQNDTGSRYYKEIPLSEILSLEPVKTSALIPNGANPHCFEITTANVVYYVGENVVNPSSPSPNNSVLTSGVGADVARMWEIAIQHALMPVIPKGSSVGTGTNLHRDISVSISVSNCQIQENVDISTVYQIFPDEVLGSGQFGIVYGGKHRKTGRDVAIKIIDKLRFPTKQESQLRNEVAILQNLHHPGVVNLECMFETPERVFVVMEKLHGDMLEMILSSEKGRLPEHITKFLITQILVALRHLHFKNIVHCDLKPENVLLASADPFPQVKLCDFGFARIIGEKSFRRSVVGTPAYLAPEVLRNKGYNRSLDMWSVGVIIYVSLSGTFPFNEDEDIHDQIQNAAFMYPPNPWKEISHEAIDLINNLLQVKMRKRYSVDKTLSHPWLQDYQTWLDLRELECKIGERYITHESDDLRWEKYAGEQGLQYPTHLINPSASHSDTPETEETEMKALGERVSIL

[4] = molecular target: Mitogen-activated protein kinase 3 (Homo sapiens, UniProt P27361); test: Selectivity interaction (Ambit KINOMEscan and KiNATiv profiling in Jurkat cells) EUB0000090b MAPK3; type: cell-based; details: at 1 µM
Mitogen-activated protein kinase 3, sequence (P27361 whole entry): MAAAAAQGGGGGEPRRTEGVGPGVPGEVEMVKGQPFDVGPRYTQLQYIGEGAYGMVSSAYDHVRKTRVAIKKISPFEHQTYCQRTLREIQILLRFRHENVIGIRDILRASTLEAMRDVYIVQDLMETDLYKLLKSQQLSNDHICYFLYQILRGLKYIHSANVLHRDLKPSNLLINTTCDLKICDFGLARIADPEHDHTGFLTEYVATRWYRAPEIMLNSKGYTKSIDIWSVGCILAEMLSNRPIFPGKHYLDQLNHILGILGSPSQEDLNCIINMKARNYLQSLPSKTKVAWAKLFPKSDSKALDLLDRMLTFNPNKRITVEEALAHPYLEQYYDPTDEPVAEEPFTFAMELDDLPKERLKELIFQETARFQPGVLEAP

[5] = Selectivity interaction (KinomeScan (DiscoverX)) EUB0000655a PKNB; details: at 10 µM
Activated CDC42 kinase 1 = Activated CDC42 kinase 1 (Homo sapiens, UniProt Q07912)
Activated CDC42 kinase 1, sequence (Q07912 whole entry): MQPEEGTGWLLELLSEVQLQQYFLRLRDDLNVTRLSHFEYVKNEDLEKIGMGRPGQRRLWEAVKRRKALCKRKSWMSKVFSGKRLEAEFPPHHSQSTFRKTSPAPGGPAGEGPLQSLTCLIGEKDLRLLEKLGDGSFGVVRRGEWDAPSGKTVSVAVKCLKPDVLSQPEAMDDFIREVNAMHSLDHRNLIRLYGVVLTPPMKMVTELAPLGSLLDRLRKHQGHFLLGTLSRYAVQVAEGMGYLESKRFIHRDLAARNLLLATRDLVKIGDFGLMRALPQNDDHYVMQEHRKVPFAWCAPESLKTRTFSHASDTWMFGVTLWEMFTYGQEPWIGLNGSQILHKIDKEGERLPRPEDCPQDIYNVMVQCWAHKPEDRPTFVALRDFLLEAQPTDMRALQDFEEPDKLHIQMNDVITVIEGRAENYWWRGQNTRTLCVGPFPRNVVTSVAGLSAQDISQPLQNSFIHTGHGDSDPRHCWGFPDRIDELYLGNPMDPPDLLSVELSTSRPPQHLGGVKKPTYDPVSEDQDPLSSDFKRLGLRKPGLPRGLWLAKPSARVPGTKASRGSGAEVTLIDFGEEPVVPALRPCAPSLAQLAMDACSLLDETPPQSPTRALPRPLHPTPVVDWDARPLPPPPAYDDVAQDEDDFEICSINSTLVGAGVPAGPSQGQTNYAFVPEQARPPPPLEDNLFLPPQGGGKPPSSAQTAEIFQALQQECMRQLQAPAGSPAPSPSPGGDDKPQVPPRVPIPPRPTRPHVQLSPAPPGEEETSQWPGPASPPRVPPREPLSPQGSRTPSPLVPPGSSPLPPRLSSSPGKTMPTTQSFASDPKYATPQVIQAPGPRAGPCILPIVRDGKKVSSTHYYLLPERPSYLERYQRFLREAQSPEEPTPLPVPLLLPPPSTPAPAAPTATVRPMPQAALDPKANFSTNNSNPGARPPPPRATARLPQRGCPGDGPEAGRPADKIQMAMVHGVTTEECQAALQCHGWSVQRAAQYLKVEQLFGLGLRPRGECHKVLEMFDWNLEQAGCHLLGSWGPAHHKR

[6] = molecular target: T3, Cyclin-dependent kinase 11A (Homo sapiens) (UniProt Q9UQ88); test: Selectivity interaction (KinomeScan (DiscoverX)) EUB0000045b CDK11A
T3 sequence (whole entry): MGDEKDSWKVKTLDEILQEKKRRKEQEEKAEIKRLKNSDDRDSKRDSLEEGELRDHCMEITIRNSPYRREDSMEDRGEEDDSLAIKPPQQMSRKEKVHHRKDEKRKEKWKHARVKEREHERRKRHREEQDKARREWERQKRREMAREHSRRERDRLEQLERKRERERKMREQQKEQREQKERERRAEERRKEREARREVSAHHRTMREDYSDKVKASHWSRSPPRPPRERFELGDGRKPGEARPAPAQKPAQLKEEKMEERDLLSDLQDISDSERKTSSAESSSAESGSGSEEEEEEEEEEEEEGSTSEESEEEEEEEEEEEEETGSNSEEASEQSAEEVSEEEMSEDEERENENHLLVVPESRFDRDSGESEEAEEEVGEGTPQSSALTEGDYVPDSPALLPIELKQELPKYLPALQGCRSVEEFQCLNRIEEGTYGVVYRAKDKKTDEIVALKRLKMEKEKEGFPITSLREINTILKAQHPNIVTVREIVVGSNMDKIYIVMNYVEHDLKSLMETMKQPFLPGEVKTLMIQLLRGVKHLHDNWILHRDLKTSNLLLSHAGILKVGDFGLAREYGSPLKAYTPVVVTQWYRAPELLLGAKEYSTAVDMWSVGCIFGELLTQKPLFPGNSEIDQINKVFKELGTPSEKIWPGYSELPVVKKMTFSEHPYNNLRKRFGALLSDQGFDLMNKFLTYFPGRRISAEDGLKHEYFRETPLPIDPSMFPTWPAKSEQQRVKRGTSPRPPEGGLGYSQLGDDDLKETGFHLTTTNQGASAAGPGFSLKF

Serine/threonine-protein kinase Nek6 (Homo sapiens), sequence (Q9HC98 whole entry): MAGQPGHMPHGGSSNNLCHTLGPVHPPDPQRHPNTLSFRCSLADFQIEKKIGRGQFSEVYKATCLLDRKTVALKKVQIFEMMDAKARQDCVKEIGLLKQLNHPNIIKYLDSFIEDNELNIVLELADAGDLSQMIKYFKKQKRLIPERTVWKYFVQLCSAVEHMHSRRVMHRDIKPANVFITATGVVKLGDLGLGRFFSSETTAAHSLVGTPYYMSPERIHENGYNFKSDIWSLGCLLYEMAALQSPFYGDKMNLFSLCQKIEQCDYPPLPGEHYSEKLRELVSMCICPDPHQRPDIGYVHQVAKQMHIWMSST

Structure (SMILES): Cn1cc(-n2cnc3c(NCc4nc5cc(Cl)c(Cl)cc5[nH]4)nc(N4CCOCC4)nc32)cn1
- % of control [1]: 3.78%

Structure (SMILES): CC[C@@H]1[C@H](F)C(=O)N[C@@H]1COc1nccc2cc(C(N)=O)c(OC)cc12 [ZIMLOVISERTIB]
- % of inhibition [2]: 4.58%

Structure (SMILES): Cc1cc(F)c(C(=O)Nc2cccc(-c3nncn3C(C)C)n2)cc1-n1cnc(C2CC2)c1
- % of control [3]: 8.7%

Structure (SMILES): CN(C)C/C=C/C(=O)Nc1ccc(C(=O)N2CCCC(Nc3ncc(Cl)c(-c4c[nH]c5ccccc45)n3)C2)cc1 (stereo not drawn)
- % of control [4]: 84%

Structure (SMILES): CN(C)CCOc1ccc(-c2nc(-c3ccncc3)c(-c3ccc4c(c3)CC/C4=N\O)[nH]2)cc1
- % of control [5]: 65%

Structure (SMILES): CCc1cccc(CC)c1NC(=O)c1nn(C)c2c1CCc1cnc(Nc3ccc(C(=O)NC4CCN(C)CC4)cc3OC(F)(F)F)nc1-2
- IC50 (Activated CDC42 kinase 1): > 10 µM

Structure (SMILES): C=CC(=O)Nc1cc(-n2c(=O)ccc3cnc4ccc(-c5ccc(NS(C)(=O)=O)cc5)cc4c32)ccc1C
- % of control ([6]; at 1 µM): 90%
- % of control ([6]; at 10 µM): 44%
